Data: patent US8940723B2, “Combination of a pyrroloquinoline compound and a beta-lactam antimicrobial agent, mupirocin or chlorhexidine” (Helperby Therapeutics Limited, priority 2010, dated 2015)
Values after ≈ are worked out from the molar mass of the structure shown. “Also recorded” adds a separate entry of the source. Where two headings read alike, the source gives them in different places.

Columns and labels:
[1] = test system: clinically latent microorganisms; assay: Screening for ability to kill clinically latent microorganisms (method of WO2000028074); format: cell-based
Description: International Patent Application, Publication Number WO2000028074 describes a method of screening compounds to determine their ability to kill clinically latent microorganisms. […] This observation has necessitated the development of novel antimicrobials which may be used to kill clinically latent microorganisms.
By way of example, WO2000028074 describes a suitable method of screening compounds to determine their ability to kill clinically latent microorganisms. A typical method may include the following steps: • (1) growing a bacterial culture to stationary phase; • (2) treating the stationary phase culture with one or more antimicrobial agents at a concentration and or time sufficient to kill growing bacteria, thereby selecting a phenotypically resistant sub-population; • (3) incubating a sample of the phenotypically resistant subpopulation with one or more test compounds or agents; and • (4) assessing any antimicrobial effects against the phenotypically resistant subpopulation.
According to this method, the phenotypically resistant sub-population may be seen as representative of clinically latent bacteria which remain metabolically active in vivo and which can result in relapse or onset of disease.

[2] = test system: Staphylococcus aureus (Oxford); assay: Minimum inhibitory concentration (MIC), broth dilution method; format: cell-based; conditions: S. aureus (Oxford), Iso-Sensitest broth, overnight incubation at 37° C.
Experimental: Staphylococcus aureus (Oxford); Gram positive; Reference strain.
Iso-Sensitest Broth (Oxoid) was used for evaluation of Minimum inhibitory concentrations (MICs), susceptibility tests for antimicrobials, and efficacy of antimicrobial combinations.
The stock solution of each drug was diluted to required concentrations. 10 μl of drug from each dilution was taken and mixed with 290 μl of culture with 10^6 of bacterial cells on a 96-well plate to make the final required concentrations (μg/ml).
The plates were read at 405 nm using a 96-well plate reader Elx 800 equipped with a 405-nm filter (Bio-Tek) before and after incubation. The MIC values of the drugs were determined by comparison of the optical density reading between prior and post drug treatment.

[3] = test system: Staphylococcus aureus (Oxford); assay: Minimum bactericidal concentration (MBC), subculture on drug-free TSA plates; format: cell-based; conditions: S. aureus (Oxford), subculture on TSA 24 to 48 hours at 37° C.
Experimental: Minimum bactericidal concentration (MBC) was determined by subculturing 100 μl of dilutions from the 96-well plate on fresh drug-free TSA agar plates and incubating further for 24 to 48 hours at 37° C.

[4] = test system: log phase S. aureus (Oxford strain); assay: Time-kill curve suspension assay, CFU counts, log phase; format: cell-based, Staphylococcus aureus
Experimental: For CFU counting, the bacterial suspensions were diluted using sterile deionized water or phosphate-buffered saline (PBS, Sigma Aldrich Ltd, Poole, Dorset, UK). 100 μl of 10-fold serial dilutions of bacteria culture were plated on one third of TSA plates in triplicate and incubated 24 to 48 hours at 37° C. The number of cells presented on the plates was counted using an AcoLyte colony counter (Synbiosis) and results were expressed as Colony Forming Units/ml (CFU/ml). […] (b) mupirocin; and (c) chlorhexidine gluconate against S. aureus, in a concentration range from below to above the MIC, was assessed in a suspension assay by the time-kill curve method. […] The wells were then inoculated with 280 μl of S. aureus (Oxford strain) suspension containing 10^7 CFU/ml of inocula. Drug free controls were also included. The microtitre plates were incubated at 37° C. for 16 to 24 hours, read in a 96-well plate reader, then samples were diluted and 100 μl of each dilution was plated out on TSA plates. After 24 to 48 hours incubation CFU was counted. Each test was performed in triplicate and repeated twice. […] The wells were then inoculated with 280 μl of S. aureus (Oxford strain) suspension containing 10^7 CFU/ml of inocula. Drug free controls were also included. The microtitre plates were incubated at 37° C. for 16 to 24 hours, read in a 96-well plate reader, then samples were diluted and 100 μl of each dilution was plated out on TSA plates. After 24 to 48 hours incubation CFU was counted. […] Each test was performed in triplicate and repeated twice. […] The wells were then inoculated with 280 μl of S. aureus (Oxford strain) suspensions containing 10^7 or 10^8 and CFU/ml of inocula. Drug free controls were also included. The microtitre plates were incubated at 37° C. for 16 to 24 hours, read in a 96-well plate reader, then samples were diluted and 100 μl of each dilution was plated out on TSA plates. After 24 to 48 hours incubation CFU was counted. Each test was performed in triplicate and repeated twice. […] The mean bacterial colony count at varying time points was compared by the two-tailed t-test with unequal variance. P values of ≦0.05 indicated significant difference.

[5] = Staphylococcus aureus, read-out: MIC
[6] = Staphylococcus aureus, read-out: MBC

Compound	activity against clinically latent microorganisms [1]	MIC [2, 5] [µg/mL]	MBC [3, 6] [µg/mL]	other results
CC[C@H]1OC(=O)[C@H](C)[C@@H](O[C@H]2C[C@@](C)(OC)[C@@H](O)[C@H](C)O2)[C@H](C)[C@@H](O[C@@H]2O[C@H](C)C[C@H](N(C)C)[C@H]2O)[C@](C)(O)C[C@@H](C)CN(C)[C@H](C)[C@@H](O)[C@]1(C)O [azithromycin]	little or no activity			
C/C(=C\C(=O)OCCCCCCCCC(=O)O)C[C@@H]1OC[C@H](C[C@@H]2O[C@H]2[C@@H](C)[C@H](C)O)[C@@H](O)[C@H]1O [Mupirocin]	little or no activity	0.125	256 (≈ 511 µM)	kind of activity against log phase S. aureus ([4]; mupirocin alone at 40, 20 and 10 μg/ml): bacteriostatic
Cc1nc2ccc(Oc3ccccc3)cc2c2c1CCN2CCc1ccccc1 [4-methyl-8-phenoxy-1-(2-phenylethyl)-2,3-dihydro-1H-pyrrolo[3,2-c]quinoline]		8	16 (≈ 42.1 µM)	activity against log phase S. aureus ([4]; agent alone at 4 μg/ml): no activities; also recorded: no activity; kind of activity against log phase S. aureus ([4]; pyrroloquinoline alone at 10 and 8 μg/ml): bactericidal activity; CFU/ml reduced from 10^7 to ([4]; pyrroloquinoline alone at 10 and 8 μg/ml, at 72 hours): zero
N=C(NCCCCCCNC(=N)NC(=N)Nc1ccc(Cl)cc1)NC(=N)Nc1ccc(Cl)cc1.O=C(O)[C@H](O)[C@@H](O)[C@H](O)[C@H](O)CO.O=C(O)[C@H](O)[C@@H](O)[C@H](O)[C@H](O)CO [Chlorhexidine gluconate]				MIC [2]: 0.5 µg/mL; MBC [3]: 2 µg/mL
CC(=O)NC[C@H]1CN(c2ccc(N3CCOCC3)c(F)c2)C(=O)O1 [linezolid]	little or no activity			
